# Reference: the supplement of paper PMC10307832
# How the values were obtained:
# Experiment in all cases: relative viability (nuclei count vs DMSO), 5 days (fraction); higher = more cells survive
# [1] = compound: OCc1c[nH]c2ccccc12 [Indole-3-carbinol]
# Procedure, shortened: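 Lung cancer cell lines in 1536-well plates were kept overnight at 37 °C, then pinned with five library-drug doses (not always all listed) spaced by √10 on vehicle-anchored plates. After 5 days without medium change, cells were fixed, permeabilised and Hoechst-stained in one step, imaged at 4×, and nuclei were counted with MetaXpress. Viability is treated-well nuclei divided by vehicle-well nuclei, taken as the median over plates. Plates passed only with control CV below 25% and at least one doubling.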
# [2] = compound: OCc1c[nH]c2ccccc12 [Indole-3-carbinol] + CC1(C)CCC(c2ccc(Cl)cc2)=C(CN2CCN(c3ccc(C(=O)NS(=O)(=O)c4ccc(N[C@H](CCN5CCOCC5)CSc5ccccc5)c(S(=O)(=O)C(F)(F)F)c4)cc3)CC2)C1 [Navitoclax] (partner 0.5 µM)
# Procedure, shortened: (§1)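 Relative viability equals treated-well nuclei counts divided by vehicle-well nuclei counts. Counts came from 4× images of lung cancer cell lines grown in 1536-well plates for 5 days after pin-tool dosing on the day after seeding. Dosing used one drug alone or a fixed anchor-drug dose plus five library-drug doses (not always all listed) in √10 steps, and values are medians of duplicate plates.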
# [3] = compound: OCc1c[nH]c2ccccc12 [Indole-3-carbinol] + COc1cccc2cc(-c3nc([C@H]4CC[C@H](C(=O)O)CC4)n4ncnc(N)c34)[nH]c12 [OSI-027] (partner 0.5 µM)
# Procedure, shortened: as §1
# [4] = compound: OCc1c[nH]c2ccccc12 [Indole-3-carbinol] + CS(=O)(=O)N1CCN(Cc2cc3nc(-c4cccc5[nH]ncc45)nc(N4CCOCC4)c3s2)CC1 [Pictilisib] (partner 1 µM)
# Procedure, shortened: as §1
# [5] = compound: OCc1c[nH]c2ccccc12 [Indole-3-carbinol] + Nc1ncn([C@H]2C[C@H](O)[C@@H](CO)O2)c(=O)n1 [Decitabine] (partner 2 µM)
# Procedure, shortened: as §1
Cell Line,relative viability ([1]; 0.253 µM),relative viability ([1]; 0.8 µM),relative viability ([1]; 2.53 µM),relative viability ([1]; 8 µM),relative viability ([2]; first compound 0.253 µM),relative viability ([2]; first compound 0.8 µM),relative viability ([2]; first compound 2.53 µM),relative viability ([2]; first compound 8 µM),relative viability ([3]; first compound 0.253 µM),relative viability ([3]; first compound 0.8 µM),relative viability ([3]; first compound 2.53 µM),relative viability ([3]; first compound 8 µM),relative viability ([4]; first compound 0.253 µM),relative viability ([4]; first compound 0.8 µM),relative viability ([4]; first compound 2.53 µM),relative viability ([4]; first compound 8 µM),relative viability ([5]; first compound 0.253 µM),relative viability ([5]; first compound 0.8 µM),relative viability ([5]; first compound 2.53 µM),relative viability ([5]; first compound 8 µM)
201T,1.05,0.976,0.953,0.986,1.22,1.15,1.18,1.2,0.895,0.765,0.748,0.718,0.653,0.682,0.621,0.699,0.819,0.834,0.885,0.844
A-427,0.96,0.95,0.982,0.97,0.963,1.05,0.97,0.947,0.372,0.444,0.566,0.537,0.74,0.66,0.679,0.588,0.53,0.542,0.607,0.547
ABC-1,0.816,0.995,1.12,0.955,–,–,–,–,0.381,0.511,0.565,0.565,0.755,0.786,0.782,0.66,0.993,1.14,1.12,1.24
BEN,0.941,0.998,1.03,0.91,0.0839,0.0691,0.0796,0.048,0.275,0.271,0.33,0.331,0.497,0.456,0.69,0.542,0.689,0.784,0.726,0.749
CAL-12T,0.971,1.07,0.986,0.922,1.21,1.48,1.16,0.993,0.709,0.775,0.62,0.623,0.338,0.616,0.398,0.377,–,–,–,–
COR-L23,1.06,1.09,1.08,0.934,1.17,1.07,0.976,0.797,0.66,0.718,0.854,0.628,0.876,0.848,0.828,0.674,0.428,0.465,0.414,0.385
COR-L 105,0.964,0.845,0.958,0.844,0.718,0.701,0.821,0.631,0.751,0.586,0.73,0.785,0.371,0.374,0.432,0.382,0.607,0.598,0.631,0.626
ChaGo-K-1,0.965,0.99,0.893,1,0.805,0.962,0.913,0.966,0.56,0.543,0.605,0.567,0.524,0.891,0.666,0.649,0.523,0.55,0.525,0.519
EKVX,1.04,0.96,0.999,0.943,1.13,1.01,0.983,0.873,0.719,0.74,0.731,0.633,0.43,0.449,0.418,0.402,0.326,0.353,0.326,0.381
EMC-BAC-2,0.957,0.949,1.05,0.912,1.16,1.21,1.11,1.04,0.32,0.356,0.386,0.359,0.532,0.453,0.555,0.359,0.953,0.96,0.957,0.889
EPLC-272H,1.01,1.15,0.9,0.906,1.32,1.08,1.26,0.988,0.252,0.299,0.333,0.218,0.337,0.329,0.293,0.298,0.364,0.359,0.388,0.356
H3255,0.924,0.953,0.948,0.96,0.643,0.523,0.54,0.467,0.518,0.625,0.543,0.545,0.427,0.483,0.467,0.48,0.658,0.561,0.517,0.68
HARA,0.96,0.894,1.06,0.889,1.18,1.17,1.14,1.16,0.572,0.436,0.597,0.556,0.299,0.573,0.573,0.407,0.566,0.549,0.637,0.47
HCC-15,1.14,0.999,0.995,0.973,0.692,0.722,0.66,0.71,0.681,0.79,0.676,0.701,0.714,0.773,0.735,0.719,0.66,0.682,0.64,0.664
HCC-44,0.983,0.972,0.954,0.96,1.05,0.986,0.941,0.859,0.488,0.412,0.484,0.525,0.52,0.499,0.49,0.506,0.983,0.986,0.971,0.91
HCC-78,1.05,0.83,0.991,1.06,0.925,0.553,0.776,0.719,0.363,0.359,0.39,0.346,0.202,0.205,0.192,0.196,0.681,0.715,0.676,0.741
HCC-366,1.09,0.905,0.999,1.03,1.03,1.02,0.986,0.948,0.954,0.777,0.898,0.881,0.175,0.111,0.18,0.18,0.384,0.335,0.369,0.335

Cell Line,relative viability ([1]; 0.253 µM),relative viability ([1]; 0.8 µM),relative viability ([1]; 2.53 µM),relative viability ([1]; 8 µM),relative viability ([2]; first compound 0.253 µM),relative viability ([2]; first compound 0.8 µM),relative viability ([2]; first compound 2.53 µM),relative viability ([2]; first compound 8 µM),relative viability ([3]; first compound 0.253 µM),relative viability ([3]; first compound 0.8 µM),relative viability ([3]; first compound 2.53 µM),relative viability ([3]; first compound 8 µM),relative viability ([4]; first compound 0.253 µM),relative viability ([4]; first compound 0.8 µM),relative viability ([4]; first compound 2.53 µM),relative viability ([4]; first compound 8 µM),relative viability ([5]; first compound 0.253 µM),relative viability ([5]; first compound 0.8 µM),relative viability ([5]; first compound 2.53 µM),relative viability ([5]; first compound 8 µM)
HCC-827,1.07,1.03,1.06,0.987,1.04,1.09,1.05,0.947,0.751,0.659,0.723,0.808,0.926,1.04,0.841,1.07,0.379,0.337,0.312,0.34
HOP-62,1.02,0.933,1.03,0.939,1.09,0.817,1.28,0.851,0.802,0.796,0.791,0.789,0.771,0.806,1.01,0.731,0.187,0.218,0.228,0.196
IA-LM,0.962,1.11,1.04,0.905,0.811,0.896,0.858,0.732,–,–,–,–,0.348,0.291,0.362,0.237,–,–,–,–
LC-2-ad,1.04,0.951,0.971,1.01,0.644,0.553,0.376,0.399,0.888,0.776,0.826,0.787,0.439,0.502,0.466,0.464,0.715,0.883,0.71,0.774
LCLC-97TM1,1.08,1.1,1.02,0.92,0.408,0.387,0.499,0.465,0.381,0.527,0.386,0.668,0.139,0.224,0.177,0.223,0.259,0.249,0.199,0.223
LCLC-103H,0.889,1.01,0.932,0.915,–,–,–,–,0.452,0.513,0.428,0.431,0.546,0.537,0.702,0.476,0.789,0.675,0.668,0.623
LK-2,0.929,0.872,1.02,1.05,0.777,0.769,1.1,0.821,0.198,0.145,0.189,0.215,0.475,0.46,0.977,0.628,0.308,0.231,0.374,0.327
LOU-NH91,0.957,0.933,0.95,1.04,0.71,0.599,0.673,0.74,0.747,0.671,0.722,0.689,0.488,0.472,0.539,0.57,0.827,0.781,0.818,0.831
LU99A,0.946,0.915,1.01,0.905,0.802,0.847,0.832,0.73,0.307,0.355,0.291,0.284,0.318,0.367,0.302,0.35,0.833,0.862,0.944,0.938
LXF-289,1.09,1.1,1,0.946,0.966,0.96,0.904,0.927,0.838,0.855,0.783,0.754,0.837,0.814,0.807,0.747,0.383,0.324,0.362,0.369
NCI-H358,0.947,0.916,0.917,0.94,–,–,–,–,0.792,0.734,0.859,0.64,0.408,0.354,0.344,0.32,0.204,0.207,0.304,0.207
NCI-H522,1.01,0.855,0.931,0.976,–,–,–,–,0.646,0.821,0.685,0.836,–,–,–,–,0.698,0.699,0.803,0.689
NCI-H650,1,1.03,1.05,0.893,–,–,–,–,0.559,0.512,0.482,0.482,0.899,0.871,0.929,0.913,0.354,0.323,0.344,0.338
NCI-H661,0.957,0.904,1.03,0.988,–,–,–,–,0.644,0.725,0.784,0.704,0.389,0.325,0.448,0.384,0.551,0.547,0.563,0.547
NCI-H1703,0.962,0.908,1.05,0.904,1.01,1.48,1.47,1.18,–,–,–,–,–,0.24,0.26,0.253,–,–,–,–
NCI-H2228,1.09,0.84,1.19,0.999,0.845,1.06,0.91,0.674,0.477,0.724,0.597,0.651,0.514,0.374,0.349,0.506,–,–,–,–
SW 900,0.922,0.772,0.903,0.764,–,–,–,–,0.574,0.706,0.592,0.599,–,–,–,–,0.418,0.376,0.483,0.405
